Results reported in patent publication US5603755A, “Preventive agent for fouling organisms” (Ihara Chemical Industry Co., Ltd., priority 1994, dated 1997).

Key:
in vivo = conditions: rat, po
Balanus amphitrite = experiment: whole plant or invertebrate; conditions: for mortality at 0.1 ppm: Amphibalanus amphitrite, read-out: Mortality rate
Description: The nauplii of Balanus amphitrite, hatched in a natural sea water sterilized by filtration were tamed with a diatom feed to convert them into cypris larvae (settling stage larvae). Ten of these cypris larvae and 4 ml of a natural sea water sterilized by filtration were placed in a laboratory dish having a diameter of 3 cm. 10 mg of a present agent compound was made into 1 g of an emulsion with an emulsifier consisting of cyclohexanone and Tween 80 (a trade name of Kao Atlas Co., Ltd.), and the emulsion was diluted to a given concentration of present agent compound with an artificial sea water. 1 ml of the diluted solution was added into the above laboratory dish. The laboratory dish was allowed to stand in a thermostat of 20° C. for 24 hours, and the number of dead cypris larvae was examined. This test was repeated three times, and the mortality rate of Balanus amphitrite at a given concentration of present agent compound was determined.
A test for mortality rate was conducted in the same manner as in Test 1 except that bis(tributyltin) oxide (hereinafter referred to simply as "TBTO" in some cases) was used as a test compound in place of the present agent compound.
Tests for mortality rate were conducted in the same manner as in Tests 1-10 except that the present agent compounds were changed to those shown in Table 4.
Tests for mortality rate were conducted in the same manner as in Tests 1-10 except that the present agent compounds were changed to those shown in Table 6.

Structure (SMILES) | mortality at 0.1 ppm (Balanus amphitrite; 24 h) [%] | Mortality rate (Balanus amphitrite; barnacle, in vivo, 24 h) [%] | further results
N#CC(C(=O)c1ccccc1Cl)=C1NC(c2ccccc2)=CS1 [3-(2-chlorophenyl)-2-(4-phenyl-2,3-dihydrothiazole-2-ylidene)-3-oxopropionitrile] | – | – | LD50 (in vivo): ≥ 5000 mg/kg
CCC[CH2][Sn]([CH2]CCC)([CH2]CCC)[O][Sn]([CH2]CCC)([CH2]CCC)[CH2]CCC [TBTO, bis(tributyltin) oxide, reference compound] | – | – | Mortality rate (Balanus amphitrite; 0.1 ppm, cypris larvae, 20° C., 24 hours (Table 1)): 50%
N#CC(=C(O)c1ccccc1Cl)c1nc(-c2ccccc2)cs1 [Test 1] | 100 | – | –
CC(C)(C)c1csc(C(C#N)=C(O)c2ccccc2Cl)n1 [Test 2] | 100 | – | –
Cc1ccccc1-c1csc(C(C#N)=C(O)c2ccccc2Br)n1 [Test 3] | 100 | – | –
Cc1ccccc1-c1csc(C(C#N)=C(O)c2ccccc2I)n1 [Test 4] | 100 | – | –
N#CC(=C(O)c1ccccc1Cl)c1nc(-c2ccccc2Cl)cs1 [Test 5] | 100 | – | –
N#CC(=C(O)c1ccccc1Cl)c1nc(-c2ccccc2F)cs1 [Test 6] | 100 | – | –
N#CC(=C(O)c1c(F)cccc1Cl)c1nc(-c2ccccc2F)cs1 [Test 7] | 100 | – | –
CC(=O)OC(=C(C#N)c1nc(-c2ccccc2)cs1)c1ccccc1Cl [Test 13] | – | 100 | –
Cc1ccc(C(=O)OC(=C(C#N)c2nc(-c3ccccc3)cs2)c2ccccc2Cl)cc1 [Test 14] | – | 100 | –
CCCCC(=O)OC(=C(C#N)c1nc(-c2ccccc2)cs1)c1ccccc1Cl [Test 15] | – | 100 | –
N#CC(=C(OC(=O)c1ccccc1)c1ccccc1Cl)c1nc(-c2ccccc2)cs1 [Test 16] | – | 100 | –
CS(=O)(=O)OC(=C(C#N)c1nc(-c2ccccc2)cs1)c1ccccc1Cl [Test 17] | – | 100 | –
Cc1ccc(S(=O)(=O)OC(=C(C#N)c2nc(-c3ccccc3)cs2)c2ccccc2Cl)cc1 [Test 18] | – | 100 | –
CCCCS(=O)(=O)OC(=C(C#N)c1nc(-c2ccccc2)cs1)c1ccccc1Cl [Test 19] | – | 100 | –
N#CC(=C(OS(=O)(=O)c1ccccc1)c1ccccc1Cl)c1nc(-c2ccccc2)cs1 [Test 20] | – | 100 | –
